# Results from publication PMC6631119, “Nasal Administration and Plasma Pharmacokinetics of Parathyroid Hormone Peptide PTH 1-34 for the Treatment of Osteoporosis” (Pharmaceutics, 2019).
# Where two headings read alike, the source gives them in different places.
# Legend:
# [1] = HPLC integrity of spray dried PTH 1-34; type: physicochemical; details: spray dried dry powder formulations during formulation development, inlet 85 °C
# Protocol: The dry powder formulation was also prepared at CPL as 1% w/w PTH (1-34) with 39% Gellan gum, 40% Solutol® HS15, 20% Trehalose. In brief, 97.5 mg Gellan gum was dissolved in 50 mL ultra-pure water overnight. Solutol® HS15 was rendered molten (60 ± 10 °C), and 100 mg was added to the Gellan gum solution and mixed for 30–45 min at 60 °C. 50 mg of trehalose was added and mixed for a further 10 min. A total 5 mg of PTH 1-34 was dissolved in 5 mL of ultra-pure water, and 2.5 mL was added to the formulation. Particles were prepared using a spray dryer Mini Spray Dryer B-290 (Buchi UK Ltd., Oldham, UK) with the inlet set at 85 °C (outlet modified by inlet temperature), the aspirator 100%, the pump set at 006 equivalent to 2 mL/ min, the spray pressure at 4 bar. Particle size of the dry powder formulation manufactured for use in the sheep was not measured, due to limited availability of material due to batch size. However, the particle size of similar formulations when prepared for loading into the delivery devices was monitored using Helos/BF (Sympatec GmbH, Clausthal-Zellerfeld, Germany) during formulation development, where the VMD was 73.7–91.8 µm (×10 = 10.6–23.7 µm, ×50 = 51.5–98.1 µm, ×90 = 142–153 µm). A total 2.4–2.8% of particles were below 10 µm. As the vast majority of particles were >10 µm, the formulations would be expected to be nasally deposited.
# [2] = Ovine plasma pharmacokinetics of PTH 1-34 (four-way randomised cross-over, ELISA); type: in vivo; details: sheep; for half-life: read-out: t1/2 (mean); for bioavailability: relative to intravenous injection, read-out: Fab
# Protocol: Research was conducted in accordance with the requirements of the Animals (Scientific Procedures) Act 1986 (ASPA) under Procedural Project Licence (PPL) number 40/3552 (Protocol 19b/1), between 26 April 2016 and 24 May 2016, at the University of Nottingham, Nottingham, UK (Procedural Establishment Licence (PEL) number PCD 40/2406). The overarching protocol (as detailed in the PPL) was subject to full review by the Animal Welfare and Ethical Review Board (AWERB), and the study-specific protocol received a more localised review by the Named Animal Care and Welfare Officer (NACWO) and Named Veterinary Surgeon (NVS). This research governance is compliant with recommended ethical review processes. In view of the clinical data obtained in the present study, the pharmacokinetics of the Solutol® HS15-based formulation of PTH 1-34 were further investigated in sheep. The sheep study replicated the clinical trial in that it tested the nasal solution formulation of PTH 1-34 as well as a subcutaneous injection, but also evaluated pharmacokinetics of PTH 1-34 following intravenous injection and an intranasal PTH1-34 dry powder formulation.
# The study was conducted according to a four-way randomised cross-over study in four (Mule crossbred) female sheep (obtained from a reputable commercial supplier). The sheep were group housed in a heat and ventilation air conditioned (HVAC) facility for the duration of the study, and were uniquely identified by a combination of ear tag and electronic transponder. On arrival, the animals were also randomly assigned a unique identifier by the facilities Research Animal Facility Management system (LabTracks, Locus Technology Inc., Manchester, MD, USA) and an abbreviated study number (1, 2, 3 and 4). To aid identification during the study, the fleece of each animal was marked with the abbreviated study number by spraying with a commercial stockmarker (dye). The animals were acclimatised for 17 days prior to initiation of treatments. The animals were subject to a health inspection by the NVS prior to and after use in the study, and were monitored during the study by the PPL holder and facility personnel supported by the NACWO, NVS and University of Nottingham personnel. Animals were weighed weekly during the study (Supplementary Materials: Section S3).
# Administration of the PTH 1-34 was either as an intranasal liquid, intranasal dry powder, subcutaneous injection or intravenous injection. The treatments were randomised according to a Latin Square design using an online randomisation programme (Experimental Design Generator and Randomiser (Edgar) accessed from: http://www.edgarweb.org.uk/) with a minimum of a two day washout period between study legs. Immediately prior to dosing, the four sheep were sedated by an intravenous injection of ketamine hydrochloride (100 mg/mL solution administered at 2.25 mg/kg). This provided approximately 3 min sedation, during which period the sheep were dosed.
# The formulations were prepared at Critical Pharmaceuticals’ Laboratories and transported, refrigerated, to the study facility. The intranasal liquid was administered via the right nostril using a LMA™ MAD110 Nasal™ Intranasal mucosal atomization device (MAD110) (Wolfe-Tory Medical, Inc., Salt Lake City, UT, USA) customised for use in sheep (to allow circumvention of the nostril and delivery of the dose to the respiratory mucosa of the nasal cavity). The intranasal powder formulation was also administered via the right nostril using a 5 mm oral/nasal tracheal tube Portex® Blueline 100/111/050, (Smiths Medical, Ashford, UK) and one-way bellows. The amount of powder administered to each animal, and thus the nominal dose of PTH 1-34, was determined by weighing the devices before and after the nasal administrations. The subcutaneous and intravenous bolus injections of PTH 1-34 were administered into the flank and a jugular vein, respectively. […]
# [3] = female, Mule crossbred, 20 ug, four-way crossover, intravenous bolus (jugular vein), solution without Solutol HS15, 20 μg, plasma ELISA, mean ± SE, n = 4
# [4] = female, Mule crossbred, inhaled or intranasal, 200 ug, four-way crossover, intranasal liquid with 7.5% w/v Solutol HS15, 200 μg, single nostril, plasma ELISA, mean ± SE, n = 4
# [5] = female, Mule crossbred, inhaled or intranasal, 200 ug, four-way crossover, intranasal liquid with 7.5% w/v Solutol HS15, 200 μg, single nostril, plasma ELISA, mean ± SE, n = 4, not dose-corrected
# [6] = female, Mule crossbred, inhaled or intranasal, four-way crossover, intranasal dry powder (1% PTH 1-34, 39% gellan gum, 40% Solutol HS15, 20% trehalose), nominal 200 μg (estimated 130 ± 15 μg), plasma ELISA, mean ± SE, n = 4
# [7] = female, Mule crossbred, sc, 20 ug, four-way crossover, subcutaneous injection into flank, solution without Solutol HS15, 20 μg, plasma ELISA, mean ± SE, n = 3
# [8] = four-way crossover, intranasal dry powder with Solutol HS15 and gellan gum, nominal 200 μg (estimated 130 ± 15 μg), plasma ELISA, n = 4
# [9] = four-way crossover, intranasal liquid with 7.5% w/v Solutol HS15, 200 μg, single nostril, plasma ELISA, n = 4
# [10] = four-way crossover, intravenous bolus (jugular vein), solution without Solutol HS15, 20 μg, plasma ELISA, n = 4
# [11] = four-way crossover, subcutaneous injection into flank, solution without Solutol HS15, 20 μg, plasma ELISA, n = 3
smiles,measurement,setting,value
"CC[C@H](C)[C@H](NC(=O)[C@H](CCC(=O)O)NC(=O)[C@H](CO)NC(=O)[C@@H](NC(=O)[C@@H](N)CO)C(C)C)C(=O)N[C@@H](CCC(N)=O)C(=O)N[C@@H](CC(C)C)C(=O)N[C@@H](CCSC)C(=O)N[C@@H](Cc1cnc[nH]1)C(=O)N[C@@H](CC(N)=O)C(=O)N[C@@H](CC(C)C)C(=O)NCC(=O)N[C@@H](CCCCN)C(=O)N[C@@H](Cc1cnc[nH]1)C(=O)N[C@@H](CC(C)C)C(=O)N[C@@H](CC(N)=O)C(=O)N[C@@H](CO)C(=O)N[C@@H](CCSC)C(=O)N[C@@H](CCC(=O)O)C(=O)N[C@@H](CCCN=C(N)N)C(=O)N[C@H](C(=O)N[C@@H](CCC(=O)O)C(=O)N[C@@H](Cc1c[nH]c2ccccc12)C(=O)N[C@@H](CC(C)C)C(=O)N[C@@H](CCCN=C(N)N)C(=O)N[C@@H](CCCCN)C(=O)N[C@@H](CCCCN)C(=O)N[C@@H](CC(C)C)C(=O)N[C@@H](CCC(N)=O)C(=O)N[C@@H](CC(=O)O)C(=O)N[C@H](C(=O)N[C@@H](Cc1cnc[nH]1)C(=O)N[C@@H](CC(N)=O)C(=O)N[C@@H](Cc1ccccc1)C(=O)O)C(C)C)C(C)C [PTH 1-34, PTH 1-34 acetate]",integrity of the spray dried PTH 1-34: purity by HPLC,[1],> 82.5%
same,AUC(0-inf),[2]; [3],0.18 ng·h/mL
same,AUC(0-t),[2]; [3],0.178 ng·h/mL
same,Tmax,[2]; [3],2 min
same,half-life,[2]; [3],75 ± 18.1 min
same,Cmax,"[2]; female, Mule crossbred, 20 ug, four-way crossover, intravenous bolus (jugular vein), solution without Solutol HS15, 20 μg, plasma ELISA, observed, mean ± SE, n = 4",1.14 ± 0.198 ng/mL
same,Cmax,[2]; [4],0.047 ± 0.021 ng/mL
same,Tmax,[2]; [4],10 min
same,AUC(0-inf),[2]; [5],0.0204 ng·h/mL
same,AUC(0-t),[2]; [5],0.0182 ng·h/mL
same,half-life,[2]; [4],109 ± 43.7 min
same,Cmax,[2]; [6],0.008 ± 0.003 ng/mL
same,Tmax,[2]; [6],11 min
same,half-life,"[2]; female, Mule crossbred, inhaled or intranasal, four-way crossover, intranasal dry powder with Solutol HS15 and gellan gum, nominal 200 μg (estimated 130 ± 15 μg), plasma ELISA, mean ± SE, n = 4",96 ± 29.8 min
same,C0,"[2]; female, Mule crossbred, plasma, 20 ug, intravenous bolus 20 μg, back-extrapolated from the first two concentration values, mean ± SE, read-out: C0 (initial plasma concentration, extrapolation to t = 0)",2.18 ± 0.696 ng/mL
same,F rel,"[2]; female, Mule crossbred, plasma, inhaled or intranasal, 200 ug, intranasal liquid with 7.5% w/v Solutol HS15, 200 μg, relative to subcutaneous injection, from AUCINF, dose-corrected, mean ± SE, n = 4, read-out: Frel",1.4 ± 0.31%
same,bioavailability,"[2]; female, Mule crossbred, plasma, inhaled or intranasal, 200 μg, intranasal dry powder with Solutol HS15 and gellan gum, from AUCINF, corrected with estimated dose, mean ± SE, n = 4",0.7 ± 0.03%
same,F rel,"[2]; female, Mule crossbred, plasma, inhaled or intranasal, 200 μg, intranasal dry powder with Solutol HS15 and gellan gum, relative to subcutaneous injection, from AUCINF, corrected with estimated dose, mean ± SE, n = 4, read-out: Frel",1 ± 0.12%
same,bioavailability,"[2]; female, Mule crossbred, plasma, inhaled or intranasal, 200 ug, intranasal liquid with 7.5% w/v Solutol HS15, 200 μg, from AUCINF, dose-corrected, mean ± SE, n = 4",1.1 ± 0.26%
same,F rel,"[2]; female, Mule crossbred, plasma, iv, 20 ug, intravenous bolus 20 μg, relative to subcutaneous injection, calculated for n = 3, read-out: Frel, n = 3",140%
same,F rel,"[2]; female, Mule crossbred, plasma, iv, 20 ug, intravenous bolus 20 μg, relative to subcutaneous injection, from AUCINF, mean ± SE, n = 4 (average subcutaneous AUCINF used for Sheep 1), read-out: Frel",156 ± 24%
same,bioavailability,"[2]; female, Mule crossbred, plasma, sc, 20 ug, subcutaneous injection into flank, 20 μg, from AUCINF, mean ± SE, n = 3",77 ± 13.7%
same,AUC(0-inf),[2]; [7],0.124 ng·h/mL
same,AUC(0-t),[2]; [7],0.12 ng·h/mL
same,Cmax,[2]; [7],0.121 ± 0.047 ng/mL
same,Tmax,[2]; [7],12 min
same,half-life,[2]; [7],54 ± 8.7 min
same,Tmax (median),[2]; [8],8 min
same,t1/2 (median),[2]; [8],71 min
same,Tmax (median),[2]; [9],10 min
same,t1/2 (median),[2]; [9],77 min
same,Tmax (mean),"[2]; four-way crossover, intravenous bolus (jugular vein), solution without Solutol HS15, 20 μg, plasma ELISA, mean ± SE, n = 4",2 min
same,Tmax (median),[2]; [10],2 min
same,t1/2 (median),[2]; [10],78 min
same,Tmax (median),[2]; [11],10 min
same,t1/2 (median),[2]; [11],47 min
same,Frel,"[2]; intranasal liquid with 7.5% w/v Solutol HS15, 200 μg, relative to subcutaneous injection, from AUCINF, dose-corrected, mean ± SE, n = 4",1.4 ± 0.3%
same,time by which concentrations had returned to near baseline values,"[2]; intranasal liquid with Solutol HS15, 200 μg, post-dose",≤ 30 min
same,time of return to near baseline,[2]; intravenous bolus 20 μg,30 to 45 min
same,Fab range,"[2]; subcutaneous injection 20 μg, relative to intravenous, range",55–108%
